This test addresses T1, human clotting factor VIIa (Homo sapiens, UniProt P08709).
T1 construct: a human clotting factor VIIa (hereinafter, “Factor VIIa”) purified sample; purchased Enzyme Research Laboratories HFVIIa
Kind of test: Inhibitory activity against clotting factor VIIa (chromogenic substrate Spectrozyme FVIIa, TF/Factor VIIa enzyme solution). The note with it: human Factor VIIa 5 nmol/L with human TF 10 nmol/L, room temperature 40 minutes, 405 nm. The class given is biochemical. The procedure, abridged: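 Human Factor VIIa (5 nmol/L) with human TF (10 nmol/L) in Tris-BSA buffer pH 7.4 containing 15 mmol/L CaCl2 and cephalin, with Spectrozyme FVIIa substrate. Reaction 40 min at room temperature; 4-nitroanilide read at 405 nm. IC50 by non-linear regression over 100 μmol/L–0.1 nmol/L.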

pIC50: −log10 of the molar value. Counter-ions that a name gives are not always drawn.

T1 sequence (P08709 213-466 limits assumed): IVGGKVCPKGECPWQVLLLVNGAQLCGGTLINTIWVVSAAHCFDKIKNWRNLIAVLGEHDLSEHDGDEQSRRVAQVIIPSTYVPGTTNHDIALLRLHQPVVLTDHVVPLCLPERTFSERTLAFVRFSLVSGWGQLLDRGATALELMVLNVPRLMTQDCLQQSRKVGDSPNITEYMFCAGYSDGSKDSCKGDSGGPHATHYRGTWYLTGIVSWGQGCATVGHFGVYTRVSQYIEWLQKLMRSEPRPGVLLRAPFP
T1 sequence (P08709 61-212 limits assumed): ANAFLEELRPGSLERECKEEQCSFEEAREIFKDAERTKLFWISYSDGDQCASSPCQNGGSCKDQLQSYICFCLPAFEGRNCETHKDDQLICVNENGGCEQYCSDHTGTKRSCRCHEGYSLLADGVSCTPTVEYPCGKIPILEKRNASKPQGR
T1 sequence (P13726 33-295 partner): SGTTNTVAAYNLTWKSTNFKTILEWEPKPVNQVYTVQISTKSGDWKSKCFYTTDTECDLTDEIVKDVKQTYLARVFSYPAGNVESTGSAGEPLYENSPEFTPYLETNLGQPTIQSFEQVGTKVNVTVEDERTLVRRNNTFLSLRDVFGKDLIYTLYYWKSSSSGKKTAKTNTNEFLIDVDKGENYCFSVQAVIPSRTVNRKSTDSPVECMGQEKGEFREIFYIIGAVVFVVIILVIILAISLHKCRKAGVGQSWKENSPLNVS

Consider `Cc1cc(O[C@H]2CCOC2)cc(C(Nc2ccc(C(=N)N)cc2)c2nn(-c3ncccn3)c(=O)[nH]2)c1` (mixture of isomers) [Example 58, 4-[((R) and (S)-{3-methyl-5-[(S)-(tetrahydrofuran-3-yl)oxy]phenyl}-(5-oxo-1-pyrimidin-2-yl-4,5-dihydro-1H-[1,2,4]triazol-3-yl)methyl)amino]benzamidine acetate], for which the pIC50 (in general, −log10 of the IC50, conventionally taken in molar units) was 8.47.

`Cc1cc(O[C@@H]2CCOC2)cc(C(Nc2ccc(C(=N)N)cc2)c2nn(-c3ncccn3)c(=O)[nH]2)c1` (mixture of isomers) [Example 59, 4-[((R) and (S)-{3-methyl-5-[(R)-(tetrahydrofuran-3-yl)oxy]phenyl}-(5-oxo-1-pyrimidin-2-yl-4,5-dihydro-1H-[1,2,4]triazol-3-yl)methyl)amino]benzamidine acetate] gave a negative-log IC50 (pIC50) of 8.35.

As to `Cc1cc(OC2CCOCC2)cc(C(Nc2ccc(C(=N)N)cc2)c2nn(-c3ncccn3)c(=O)[nH]2)c1` (racemic) [Example 60, (R) and (S)-4-({[3-methyl-5-(tetrahydropyran-4-yloxy)phenyl]-(5-oxo-1-pyrimidin-2-yl-4,5-dihydro-1H-[1,2,4]triazol-3-yl)methyl}amino)benzamidine acetate], the negative logarithm of the IC50 (pIC50) is 8.43.

`COc1cc(OCCF)cc(C(Nc2ccc(C(=N)N)cc2)c2nn(-c3ncccn3)c(=O)[nH]2)c1` (racemic) [Example 61, (R) and (S)-4-({[3-(2-fluoroethoxy)-5-methoxyphenyl]-(5-oxo-1-pyrimidin-2-yl-4,5-dihydro-1H-[1,2,4]triazol-3-yl)methyl}amino)benzamidine acetate] gave a pIC50 of 8.25.

`COc1cc(OCC(=O)N(C)C)cc(C(Nc2ccc(C(=N)N)cc2)c2nn(-c3ncccn3)c(=O)[nH]2)c1` (racemic) [Example 62, (R) and (S)-2-{3-[(4-carbamimidoylphenylamino)-(5-oxo-1-pyrimidin-2-yl-4,5-dihydro-1H-[1,2,4]triazol-3-yl)methyl]-5-methoxyphenoxy}-N,N-dimethylacetamide acetate] gave a pIC50 of 7.61.

`COc1cc(OC2CCOCC2)cc(C(Nc2ccc(C(=N)N)cc2)c2nn(-c3ncccn3)c(=O)[nH]2)c1` (racemic) [Example 63, (R) and (S)-4-({[3-methoxy-5-(tetrahydropyran-4-yloxy)phenyl]-(5-oxo-1-pyrimidin-2-yl-4,5-dihydro-1H-[1,2,4]triazol-3-yl)methyl}amino)benzamidine acetate] showed a pIC50 of 8.41.

The compound `COc1cc(OCCF)cc(C(Nc2ccc(C(=N)N)cc2)c2nn(-c3cccnn3)c(=O)[nH]2)c1` (racemic) [Example 64, (R) and (S)-4-({[3-(2-fluoroethoxy)-5-methoxyphenyl]-(5-oxo-1-pyridazin-3-yl-4,5-dihydro-1H-[1,2,4]triazol-3-yl)methyl}amino)benzamidine acetate] had a pIC50 of 8.38.

For `CCOc1cc(OC)cc(C(Nc2ccc(C(=N)N)cc2)c2nn(-c3cccnn3)c(=O)[nH]2)c1` (racemic) [Example 65, (R) and (S)-4-{[(3-ethoxy-5-methoxyphenyl)-(5-oxo-1-pyridazin-3-yl-4,5-dihydro-1H-[1,2,4]triazol-3-yl)methyl]amino}benzamidine acetate], the pIC50 was 8.28.

`COc1cc(OC)c(F)c(C(Nc2ccc(C(=N)N)cc2)c2nn(-c3ncccn3)c(=O)[nH]2)c1` (racemic) [Example 66, (R) and (S)-4-{[(2-fluoro-3,5-dimethoxyphenyl)-(5-oxo-1-pyrimidin-2-yl-4,5-dihydro-1H-[1,2,4]triazol-3-yl)methyl]amino}benzamidine acetate] showed a pIC50 of 8.10.

Turning to `COc1cc(C(Nc2ccc(C(=N)N)cc2)c2nn(-c3ncccn3)c(=O)[nH]2)c(F)c(OC)c1OC` (racemic) [Example 67, (R) and (S)-4-{[(2-fluoro-3,4,5-trimethoxyphenyl)-(5-oxo-1-pyrimidin-2-yl-4,5-dihydro-1H-[1,2,4]triazol-3-yl)methyl]amino}benzamidine acetate], the pIC50 was 8.35.

`CCOc1cc(OCCF)c(F)c(C(Nc2ccc(C(=N)N)cc2)c2nn(-c3ncccn3)c(=O)[nH]2)c1` (racemic) [Example 68, (R) and (S)-4-({[2-fluoro-3-(2-fluoroethoxy)-5-ethoxyphenyl]-(5-oxo-1-pyrimidin-2-yl-4,5-dihydro-1H-[1,2,4]triazol-3-yl)methyl}amino)benzamidine acetate]: the pIC50 was 8.17. This pIC50 and that of the compound before are within 0.2 log units of each other.

`CCOc1cc(OC)c(F)c(C(Nc2ccc(C(=N)N)cc2)c2nn(-c3ncccn3)c(=O)[nH]2)c1` (racemic) [Example 69, (R) and (S)-4-{[(5-ethoxy-2-fluoro-3-methoxyphenyl)-(5-oxo-1-pyrimidin-2-yl-4,5-dihydro-1H-[1,2,4]triazol-3-yl)methyl]amino}benzamidine acetate] gave a pIC50 of 7.82.

Consider `CCOc1cc(OCCF)c(F)c(C(Nc2ccc(C(=N)N)cc2)c2nn(-c3cccnn3)c(=O)[nH]2)c1` (racemic) [Example 70, 4-({(R) and (S)-[5-ethoxy-2-fluoro-3-(2-fluoroethoxy)phenyl]-(5-oxo-1-pyridazin-3-yl-4,5-dihydro-1H-[1,2,4]triazol-3-yl)methyl}amino)benzamidine acetate], for which the pIC50 is 8.31.

`CCOc1cc(OC)c(F)c(C(Nc2ccc(C(=N)N)cc2)c2nn(-c3cccnn3)c(=O)[nH]2)c1` (racemic) [Example 71, (R) and (S)-4-{[(5-ethoxy-2-fluoro-3-methoxyphenyl)-(5-oxo-1-pyridazin-3-yl-4,5-dihydro-1H-[1,2,4]triazol-3-yl)methyl]amino}benzamidine acetate] had a pIC50 of 8.11.

`COc1cc(COCCF)cc(C(Nc2ccc(C(=N)N)cc2)c2nn(-c3ncccn3)c(=O)[nH]2)c1` (racemic) [Example 72, (R) and (S)-4-({[3-(2-fluoroethoxymethyl)-5-methoxyphenyl]-(5-oxo-1-pyrimidin-2-yl-4,5-dihydro-1H-[1,2,4]triazol-3-yl)methyl}amino)benzamidine acetate]: the negative logarithm of the IC50 (pIC50) was 8.00.

Compound `COCc1cc(OC)cc(C(Nc2ccc(C(=N)N)cc2)c2nn(-c3cccnn3)c(=O)[nH]2)c1` (racemic) [Example 73, (R) and (S)-4-{[(3-methoxy-5-methoxymethylphenyl)-(5-oxo-1-pyridazin-3-yl-4,5-dihydro-1H-[1,2,4]triazol-3-yl)methyl]amino}benzamidine trifluoroacetate] showed a pIC50 of 7.95.

`CCc1cc(OCCF)cc(C(Nc2ccc(C(=N)N)cc2)c2nn(-c3ncccn3)c(=O)[nH]2)c1` (racemic) [Example 74, (R) and (S)-4-({[3-ethyl-5-(2-fluoroethoxy)phenyl]-(5-oxo-1-pyrimidin-2-yl-4,5-dihydro-1H-[1,2,4]triazol-3-yl)methyl}amino)benzamidine acetate]: the negative-log IC50 (pIC50) was 8.48.

`CCc1cc(OC)cc(C(Nc2ccc(C(=N)N)cc2)c2nn(-c3ncccn3)c(=O)[nH]2)c1` (racemic) [Example 75, (R) and (S)-4-{[(3-ethyl-5-methoxyphenyl)-(5-oxo-1-pyrimidin-2-yl-4,5-dihydro-1H-[1,2,4]triazol-3-yl)methyl]amino}benzamidine acetate]: the negative logarithm of the IC50 (pIC50) was 8.28. Compared with the last compound, the pIC50 is 0.20 log units lower.

Source of the values: US7816522B2, “Triazolone derivatives” (Eisai Co., Ltd., priority 2006, dated 2010).
